From PubChem BioAssay AID1918949 (Molecular Pharmacology Branch, DTP, NCI, 2023)
“And” between values parts separate entries of the source, which are not always exact repeats. Equal values may be shown once.

System: K24384-001-R-PDC complex spheroid viability
Assay: Anticancer human tumor K24384-001-R-PDC patient-derived pancreatic adenocarcinoma cell line growth inhibition
Conditions: for viability, T/C: stronger effect = lower value
Excerpt: Multicellular complex tumor spheroid response to LSD1 Inhibitor Iadademstat in combination with a variety of drugs and investigational agents in selected tumor cell lines
The current study was undertaken to assess response to LSD1 inhibitors in combination with standard-of-care drugs and investigational agents in solid tumor complex spheroid models as well as in the K-562 leukemia. Complex spheroids include a stromal component modeled by human endothelial cells (HUVEC) and fibroblasts modeled by human mesenchymal stem cells (MSCs). The concentration ranges selected for each drug and investigational agent were based upon clinically achievable concentrations if the clinical Cmax of the agent was known.
Compounds. The drugs and investigational agents used in this study are listed on Table 1. All of the agents used, including staurosporine (NSC755774) and gemcitabine (NSC613327), were obtained from the Developmental Therapeutics Program, NCI. FDA-approved anticancer drugs are available from the NCI at http://dtp.nci.nih.gov/branches/dscb/oncology_drugset_explanation.html. Drugs and investigational agents were >95% pure by proton nuclear magnetic resonance (NMR) and liquid chromatography/mass spectrometry (LC/MS). Stock solutions were prepared at 400x in DMSO, stored at -70 degrees C, and diluted in fresh medium prior to their use. The final concentration of DMSO in cell culture wells never exceeded 0.25% (v/v). The FDA-approved anticancer drug set is available from the Developmental Therapeutics Program at https://dtp.cancer.gov/organization/dscb/obtaining/available_plates.htm. All drugs and investigational agents were tested over a range starting from a high concentration at or near the clinical Cmax and decreasing in half-log increments. If the clinical Cmax for an agent had not been determined, the highest concentration tested was 10 microM.
Cell Lines. The patient-derived cancer cell (PDC) lines: 292921-168-R-J2-PDC, K24384-001-R-PDC, and 521955-158-R2-J5-PDC pancreatic carcinomas, 556581-035-R-J1 ovarian carcinoma, 324938-238-R-J1-PDC, 855422-203-R-J1-PDC and 883617-216-R-J1-PDC urothelial bladder carcinomas, 743489-274-T-PDC renal cell carcinoma, 138582-R-J1 Merkel cell tumor, K60290-347-R-J1 and K57222-313-R-J1-PDC glioblastomas, 653999-131-R-J2-PDC, LG0703-F948-PDC, and 349418-098-R-PDC non-small cell lung carcinomas, 885512-296-R-J2-PDC, 171881-019-R-J1-PDC breast carcinomas and 186277-243-T-J2-PDC and 233499-124-R-J2-PDC colon carcinomas were obtained from the NCI Patient-Derived Models Repository (PDMR, https://pdmr.cancer.gov). The established cell lines NCI/ADR-RES (RRID:CVCL_14520 and OVCAR-5 (RRID:CVCL_1628) ovarian carcinomas, 786-O (RRID:CVCL_1051) and A498 (RRID:CVCL_A498) renal cell carcinoma, NCI-H211 (ATCC, cat. CRL-5824; RRID:CVCL_1529), NCI-H196 (ATCC, cat. CRL-5823, RRID:CVCL_1509), SW 1271 (ATCC, cat. CRL-2177, RRID:CVCL_1716) and NCI-H1876 (ATCC, cat. CRL-5902, RRID:CVCL_1503) small cell lung carcinomas, MDA-MB-231 (RRID:CVCL_0062) and MDA-MB-468 (RRID:CVCL_0419)breast carcinomas (10-12). Pooled donor human umbilical vein endothelial cells (HUVEC, Lonza, cat. CC-2519) and human mesenchymal stem cells (hMSC, Lonza, cat. PT-2501) were purchased from Lonza (Walkersville, MD).
Cell Culture. All cells were maintained in an incubator at 37 degrees C and 5% CO2 with 95% humidity. The PDC lines were cultured according to standard operating procedures established by the NCI PDMR (https://pdmr.cancer.gov). Briefly all PDCs were thawed and cultured in Matrigel-coated flasks prepared with a working solution of 1X Ham's F-12 nutrient mix, without supplementation (Invitrogen, Waltham, MA, cat. 11765054), 100 U/mL penicillin-streptomycin (Invitrogen, cat. 15140122), and 2.5% Matrigel (Corning Inc., Corning, NY, cat. 354248) for the first three passages. […]

[1] = curve of first compound, second compound 0.1 µM
[2] = curve of first compound, second compound 0.316 µM
[3] = curve of first compound, second compound 1 µM
[4] = curve of first compound, second compound 3.16 µM
[5] = curve of first compound, second compound 10 µM
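Further: spheroids exposed to agents for seven days before luminescence viability reading.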
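Wherever viability, T/C is given: 100% = DMSO vehicle control viability.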

CC(C)CC(NC(=O)C(Cc1ccccc1)NC(=O)c1cnccn1)B(O)O (centres undefined)
viability, T/C (compound 0.000316 µM): 81.2% and 95.6% | viability, T/C (compound 0.001 µM): 1.67% and 1.46% | viability, T/C (compound 0.00316 µM): 0.39% and 0.47% | viability, T/C (compound 0.01 µM): 0.38% | viability, T/C (compound 0.0316 µM): 0.34% and 0.41% | viability, T/C (compound 0.1 µM): 0.36% and 0.35% | IC50 (curve of compound): 0.497 nM and 0.552 nM

O=C(C=Cn1cnc(-c2cc(C(F)(F)F)cc(C(F)(F)F)c2)n1)NNc1cnccn1 + NC1CC1c1ccc(-c2cccc(O)c2)cc1
IC50 [1]: 27.7 nM | IC50 [2]: 23.7 nM | IC50 [3]: 22.4 nM | IC50 [4]: 21.2 nM | IC50 [5]: 27.8 nM | viability, T/C (second compound 0.1 µM, first compound 0.00316 µM): 68.8% | viability, T/C (second compound 0.1 µM, first compound 0.01 µM): 72.3% | viability, T/C (second compound 0.1 µM, first compound 0.0316 µM): 46.5% | viability, T/C (second compound 0.1 µM, first compound 0.1 µM): 28.7% | viability, T/C (second compound 0.1 µM, first compound 0.316 µM): 24.7% | viability, T/C (second compound 0.1 µM, first compound 1 µM): 20.6% | viability, T/C (second compound 0.316 µM, first compound 0.00316 µM): 68.2% | viability, T/C (second compound 0.316 µM, first compound 0.01 µM): 72.8% | viability, T/C (second compound 0.316 µM, first compound 0.0316 µM): 42.7% | viability, T/C (second compound 0.316 µM, first compound 0.1 µM): 30.2% | viability, T/C (second compound 0.316 µM, first compound 0.316 µM): 21.6% | viability, T/C (second compound 0.316 µM, first compound 1 µM): 20.3% | viability, T/C (second compound 1 µM, first compound 0.00316 µM): 67.1% | viability, T/C (second compound 1 µM, first compound 0.01 µM): 77% | viability, T/C (second compound 1 µM, first compound 0.0316 µM): 40.6% | viability, T/C (second compound 1 µM, first compound 0.1 µM): 27.3% | viability, T/C (second compound 1 µM, first compound 0.316 µM): 22.7% | viability, T/C (second compound 1 µM, first compound 1 µM): 19% | viability, T/C (second compound 3.16 µM, first compound 0.00316 µM): 80.9% | viability, T/C (second compound 3.16 µM, first compound 0.01 µM): 65.4% | viability, T/C (second compound 3.16 µM, first compound 0.0316 µM): 42% | viability, T/C (second compound 3.16 µM, first compound 0.1 µM): 26% | viability, T/C (second compound 3.16 µM, first compound 0.316 µM): 21.7% | viability, T/C (second compound 3.16 µM, first compound 1 µM): 19.5% | viability, T/C (second compound 10 µM, first compound 0.00316 µM): 80.6% | viability, T/C (second compound 10 µM, first compound 0.01 µM): 81.9% | viability, T/C (second compound 10 µM, first compound 0.0316 µM): 46% | viability, T/C (second compound 10 µM, first compound 0.1 µM): 30.7% | viability, T/C (second compound 10 µM, first compound 0.316 µM): 26.7% | viability, T/C (second compound 10 µM, first compound 1 µM): 24.5%

CC(C)CC(NC(=O)CNC(=O)c1cc(Cl)ccc1Cl)B1OC(=O)CC(CC(=O)O)(C(=O)O)O1 (centres undefined)
viability, T/C (compound 0.000316 µM): 100% and 107% | viability, T/C (compound 0.001 µM): 103% and 86.3% | viability, T/C (compound 0.00316 µM): 91.3% and 79.2% | viability, T/C (compound 0.01 µM): 42.1% and 59.8% | viability, T/C (compound 0.0316 µM): 4.17% and 4.53% | viability, T/C (compound 0.1 µM): 0.95% and 1.47% | IC50 (curve of compound): 8.28 nM and 11.1 nM

Nc1ccn(C2OC(CO)C(O)C2(F)F)c(=O)n1 (centres undefined) + NC1CC1c1ccc(-c2cccc(O)c2)cc1
IC50 [1]: 28.3 nM | IC50 [2]: 43 nM | IC50 [3]: 38.1 nM | IC50 [4]: 46 nM | IC50 [5]: 90.9 nM | viability, T/C (second compound 0.1 µM, first compound 0.000949 µM): 82.5% | viability, T/C (second compound 0.1 µM, first compound 0.003 µM): 72.9% | viability, T/C (second compound 0.1 µM, first compound 0.00949 µM): 63.4% | viability, T/C (second compound 0.1 µM, first compound 0.03 µM): 48% | viability, T/C (second compound 0.1 µM, first compound 0.0949 µM): 41.9% | viability, T/C (second compound 0.1 µM, first compound 0.3 µM): 37.2% | viability, T/C (second compound 0.316 µM, first compound 0.000949 µM): 87.9% | viability, T/C (second compound 0.316 µM, first compound 0.003 µM): 73.4% | viability, T/C (second compound 0.316 µM, first compound 0.00949 µM): 68% | viability, T/C (second compound 0.316 µM, first compound 0.03 µM): 49.5% | viability, T/C (second compound 0.316 µM, first compound 0.0949 µM): 44.9% | viability, T/C (second compound 0.316 µM, first compound 0.3 µM): 35.8% | viability, T/C (second compound 1 µM, first compound 0.000949 µM): 75% | viability, T/C (second compound 1 µM, first compound 0.003 µM): 84.5% | viability, T/C (second compound 1 µM, first compound 0.00949 µM): 63.6% | viability, T/C (second compound 1 µM, first compound 0.03 µM): 53.2% | viability, T/C (second compound 1 µM, first compound 0.0949 µM): 41.1% | viability, T/C (second compound 1 µM, first compound 0.3 µM): 32% | viability, T/C (second compound 3.16 µM, first compound 0.000949 µM): 98.5% | viability, T/C (second compound 3.16 µM, first compound 0.003 µM): 81.2% | viability, T/C (second compound 3.16 µM, first compound 0.00949 µM): 67.1% | viability, T/C (second compound 3.16 µM, first compound 0.03 µM): 56% | viability, T/C (second compound 3.16 µM, first compound 0.0949 µM): 42.1% | viability, T/C (second compound 3.16 µM, first compound 0.3 µM): 31.5% | viability, T/C (second compound 10 µM, first compound 0.000949 µM): 103% | viability, T/C (second compound 10 µM, first compound 0.003 µM): 99% | viability, T/C (second compound 10 µM, first compound 0.00949 µM): 95.5% | viability, T/C (second compound 10 µM, first compound 0.03 µM): 69.3% | viability, T/C (second compound 10 µM, first compound 0.0949 µM): 51.3% | viability, T/C (second compound 10 µM, first compound 0.3 µM): 40.2%
